The source of these data is paper PMC7887271, “Fast acting allosteric phosphofructokinase inhibitors block trypanosome glycolysis and cure acute African trypanosomiasis in mice” (Nature Communications, 2021).

“And” between values parts separate entries of the source, which are not always exact repeats. Equal values may be shown once. Read-outs that look alike come from different tables or passages of the source.

The test system of experiment [1] is bloodstream form of T. brucei strain Lister 427. Description: T. b. brucei 427 growth inhibition assay (LILiT, Alamar Blue). In kind it is cell-based. The following applies: Trypanosoma brucei. As for the experimental part: The ‘in vitro’ parasite killing assay used the BSF of the non-human pathogenic subspecies T. b. brucei, strain Lister 427, cultured in HMI-9 medium containing 10% foetal bovine serum. A second cell line, T. b. brucei GVR35-Luc2 which constitutively expresses firefly luciferase was grown in Modified HMI-9 plus 20% foetal calf serum supplemented with 20% Serum Plus (Sigma) and 0.15 μg mL^−1 puromycin. Both strains of trypanosomes were cultured in T-25 vented cap flasks at 37 °C and 5% CO2.
The ‘in vitro’ parasite killing assay used the bloodstream-form of the non-human pathogenic subspecies T. b. brucei, strain Lister 427 (a gift from Professor Keith Matthews) which was cultured in HMI-9 medium containing 10% fetal bovine serum (FBS). A second cell line, T. b. brucei GVR35-Luc2 which constitutively expresses firefly luciferase (5) was grown in Modified HMI-9 plus 20% fetal calf serum (FCS) supplemented with 20% Serum Plus (Sigma) and 0.15 μg/ml puromycin as described previously (5). Both strains of trypanosomes were cultured in T-25 vented cap flasks at 37 °C and 5% CO2.
Growth inhibition tests of bloodstream-form T. b. brucei Lister 427 were carried out using the LILiT (long incubation low inoculation test) method (6). The parasites were cultured in complete HMI-9 medium containing 10% FBS in 96-well plates (Greiner Inc.) with approximately 2500 trypanosomes per well. A 3-fold dilution series (in the range from 45 µM – 0.020 µM) of the inhibitor compounds were prepared in the plate; the maximal concentration of DMSO was 0.45%. After 72 hours of incubation at 37 °C and 5% CO2, 50 µl Alamar Blue (0.2% diluted with Dulbecco’s-phosphate buffered saline (D-PBS, Sigma) was added to each well and plates were incubated at 37 °C and 5% CO2 for 4 hours. Fluorescence was read on the BMG multiplate reader using an excitation wavelength of 530 nm and an emission wavelength of 590 nm.

Experiment [2] concerns the target T1, T. brucei phosphofructokinase (TbPFK) (Trypanosoma brucei brucei, UniProt O15648).
T1 construct: made in house; host or cells: Escherichia coli C41 (pET28a, codon optimised gene)
T1 sequence (O15648 1-487): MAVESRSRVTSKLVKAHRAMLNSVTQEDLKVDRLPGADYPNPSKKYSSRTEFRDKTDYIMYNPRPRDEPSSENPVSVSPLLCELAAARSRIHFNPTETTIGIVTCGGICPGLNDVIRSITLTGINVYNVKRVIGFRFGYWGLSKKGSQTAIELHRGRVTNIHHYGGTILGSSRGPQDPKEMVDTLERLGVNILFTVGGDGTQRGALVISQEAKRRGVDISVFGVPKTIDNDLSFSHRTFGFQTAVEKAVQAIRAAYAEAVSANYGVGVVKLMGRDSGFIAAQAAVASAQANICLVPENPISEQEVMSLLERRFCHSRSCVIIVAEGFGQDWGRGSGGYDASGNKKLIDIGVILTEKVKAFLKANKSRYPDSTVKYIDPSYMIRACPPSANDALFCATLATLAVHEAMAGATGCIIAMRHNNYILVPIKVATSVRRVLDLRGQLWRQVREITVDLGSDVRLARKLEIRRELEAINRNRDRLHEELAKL
Description: ADP-Glo assay for measuring PFK inhibition. The class given is biochemical. How it is done:
Parasite enzyme kinetic data were measured using N-terminally His6-tagged TbPFK expressed in Escherichia coli C41 cells, using a codon optimised gene inserted in a pET28a vector (Supplementary Methods 1). Recombinant human PFKs were expressed in PFK-deficient Saccharomyces cerevisiae. PFK enzyme inhibition was measured using an ADP-Glo^TM assay (Promega) in a 96-well plate format (Supplementary Methods 2.1), using a Spectramax© M5 Multimode Plate Reader to measure luminescence values which were converted to ADP concentrations. IC50 values were determined using a sigmoidal curve fitting algorithm in Kaleidagraph 4 (Supplementary Fig. 1). Mode of action studies were carried out using a linked enzyme assay coupling the forward reaction of TbPFK to the M1 isoform of human pyruvate kinase followed by lactate dehydrogenase. The change in UV absorbance at 340 nm resulting from the conversion of NADH to NAD^+ was measured at 25 °C in ‘kinetic mode’ on a Spectramax© M5 Multimode plate reader. Initial velocities were plotted against substrate concentration to give curves showing non-competitive inhibition (Supplementary Fig. 2). An alternative linked enzyme assay was developed to control for the potential inhibitory activity of ATP on human PFK (Supplementary Methods 2.3).
The ADP-Glo™ end-point assay kit manufactured by Promega (cat. No. V9102) was used to measure ADP produced in the phosphofructokinase reaction:
Following this kinase reaction, the addition of a reagent results in any unused background ATP being removed and the reaction is sequestered. A second reagent is then added to convert the remaining ADP to ATP which is coupled to the luciferase/luciferin reaction to produce light. ‘Ultrapure’ ATP and ADP from Promega were used to reduce background noise. All reagents additional to those provided in the Promega ADP-Glo™ kit were purchased from Sigma-Aldrich.
The assay buffer comprised 50 mM triethanolamine (TEA), 10 mM MgCl2, 5 mM KCl, 0.1% w/v bovine serum albumin (BSA), 0.005% Tween-20, 1% DMSO, pH 7.4. A 3-fold serial dilution of 250x inhibitor stocks was carried out in 100% DMSO. 2 µl of these dilutions was added to 198 µl assay buffer and mixed well using a multichannel pipette. […] Concentration ranges of inhibitor compounds were 40 - 0.006 µM (final concentration, 1% DMSO). The PFK reaction in the presence of inhibitor was carried out using 10 µl of 1 µg/ml PFK (final concentration 0.4 µg/ml) which was added to 10 µl of the 1% DMSO inhibitor compound serial dilutions in a white, non-binding 96-well plate (Greiner BioOne 655904). CTCB-001 was used as a positive control at a final concentration of 5 µM. Assay buffer containing 1% DMSO was added instead of inhibitor compound for the negative control. The protein/inhibitor mixture was incubated for 10 minutes at room temperature (RT). The kinase reaction was started by adding a 5x ATP/F6P stock in assay buffer (final concentrations 0.5 mM F6P and 0.1 mM ATP). Plates were then sealed, centrifuged at 560 x g for 30 seconds and incubated at RT for 30 minutes. 25 µl of ‘ADP-Glo™ Reagent’ was then added to each well, mixed using a multichannel pipette and incubated at room temperature for 40 minutes. 50 µl of ‘Kinase Detection Reagent’ was added and incubated for 50 minutes at RT. The luminescence was recorded using a Spectramax© M5 Multi-mode Plate Reader (Molecular Devices) in single-point mode, with an integration time of 750 milliseconds. The luminescence values were converted to ADP concentration using a standard calibration curve for ADP. The resulting ADP concentrations were plotted as a function of inhibitor compound concentration using Kaleidagraph 4.0 software. The data were analysed using non-linear regression and a sigmoidal curve was fitted (Supplementary Figure 1) to determine the IC50. Kaleidagraph 4.0 uses the Levenberg-Marquardt algorithm in an iterative procedure to fit non-linear curves. […] The slope of the curve at the midpoint (m4) was set to 1.

The subject of experiment [3] is T. b. brucei GVR35-VSL2. Briefly: Mouse model of stage 1 and stage 2 HAT, bioluminescence imaging. In kind it is in vivo, T. b. brucei in female CD-1 mice. The source says:
An alternative mouse model for stage 1 (acute) and stage 2 (CNS-involved) HAT has been developed using a transgenic cell line derived from the pleiomorphic T. b. brucei GVR35 that expresses red-shifted firefly luciferase[17],[18]. […] T. b. brucei GVR35-infected mice present stage 1 disease by day 7 post infection with progression to stage 2 by day 21. By injecting the mouse with luciferin, the level of parasitaemia can be estimated in real time by monitoring the luminescence. Unlike monomorphic Lister 427 T. b. brucei, the pleiomorphic GVR35 T. b. brucei is controlled by a quorum-sensing mechanism resulting in the significant increase in survival time in mice and lower blood parasitaemia that occurs in waves. This extended survival time is also accompanied by parasite dissemination to multiple tissues and organs, including the skin, adipose tissue, lung and brain, with parasite loads increasing over time[17],[19].
For the mouse model of stage 1 and stage 2 HAT T. b. brucei GVR35-VSL2 parasites (3 × 10^4) were injected into a single donor female CD-1 mouse intraperitoneally. Once infection was established, starting on day 7 for stage 1 studies and day 21 for stage 2 studies, mice were either left untreated (n = 3) or dosed by oral gavage with CTCB compound in Cremophor EL: EtOH: D-PBS (30:10:60 v/v; n = 6). Progression of T. b. brucei GVR35-VSL2 infection was monitored primarily by in vivo bioluminescence imaging of infected mice using an IVIS Spectrum (PerkinElmer). For stage 1 studies, imaging of infected mice was performed before treatment on day 7 post infection and on days following the treatment (days 8, 9 and 14). Imaging on groups of three mice was performed 12 min after intraperitoneal injection of 150 mg kg^−1 D-luciferin (Promega) in PBS. For stage 2 studies, mice were imaged prior to treatment on day 21, and subsequently on days 22 and 23. On day 23, 24 h after the final dose, mice were sacrificed by cervical dislocation and perfused with PBS containing 15 g L^−1 glucose to allow ex vivo imaging of whole brains (Supplementary Figs. 12 and 13).
Female CD-1 (Charles River UK; 6-8 weeks old) mice were infected with 3 × 10^4 T. b. brucei GVR35-VSL2 bloodstream form parasites intraperitoneally. T. b. brucei GVR35-VSL2 expresses red-shifted luciferase and provides a better signal for imaging (13). Once infection was established, starting on day 7 for Stage 1 studies and day 21 for Stage 2 studies, mice were either left untreated (n=3) or dosed by oral gavage with CTCB compound in Cremophor EL: EtOH : D-PBS (30:10:60 v/v) (n = 6). Additional groups of mice (n=3) that received either a single intraperitoneal dose of diminazene aceturate (Sigma-Aldrich) at 40 mg/kg in sterile water or 0.1 ml melarsoprol gel (14) containing 3.6 mg melarsoprol, applied topically for 3 consecutive days, served as controls for Stage 1 and Stage 2 treatment studies, respectively.
Progression of T. b. brucei GVR35-VSL2 infection was monitored primarily by in vivo bioluminescence imaging of infected mice using an IVIS Spectrum (PerkinElmer) as described previously (5). For stage 1 studies, imaging of infected mice was performed before treatment on day 7 post-infection and in days following the treatment (days 8, 9 and 14). Imaging on groups of three mice was performed 12 minutes after intraperitoneal injection of 150 mg/kg D-luciferin (Promega) in PBS. For stage 2 studies, mice were imaged prior to treatment on day 21 and subsequently on days 22 and 23. On day 23, 24 hours after the final dose, mice were sacrificed by cervical dislocation and perfused with phosphate-buffered saline containing 15 g.L^−1 glucose to allow ex vivo imaging of whole brains. To this end, 100 μl D-luciferin was administered onto the brain surface and imaging performed immediately thereafter.

[4] abbreviates: 72 h, read-out: EC50 (µM) in vitro parasite killing of bloodstream form T. brucei Lister 427 (Tbb EC50), 72 h, Alamar Blue.
Setting [5] is: ADP-Glo, mean ± SD, read-out: IC50 (µM) for inhibition of T. brucei phosphofructokinase (PFK IC50).
[6] abbreviates: source data for Fig. 2 and Table 1, read-out: Average IC50.
Setting [7] is: source data, read-out: IC50 (µM), single dated measurement.

`Clc1ccc(Cn2ccc3cnccc32)cc1Cl` [CTCB103]: the concentration for a half-maximal effect (EC50) in experiment [1] (setting [4]) was 7.8 ± 0.1 µM. Also, the half-maximal inhibitory concentration (IC50) in experiment [2] (setting [5]) amounted to 0.46 ± 0.03 µM.

On to `Clc1ccc(Cn2cnc3cnccc32)cc1Cl` [CTCB107], for which the EC50 in experiment [1] (setting [4]) was 8.5 ± 0.6 µM. In addition, the half-maximal inhibitory concentration (IC50) turned out to be 1.14 ± 0.76 µM in experiment [2] (setting [5]), 0.6 µM in experiment [2] (setting [6]) and 0.6 µM in experiment [2] (setting [7]).

Regarding `Clc1ccc(Cn2ccnc2)cc1Cl` [CTCB-12], the EC50 in experiment [1] (setting [4]) was 8.9 ± 0.2 µM. The L.E. ligand efficiency in experiment [2] is on record as 0.51. The IC50 in experiment [2] (Average IC50 (µM), source data for Fig. 2 and Table 1) worked out at 0.83 µM; in experiment [2] (IC50 (µM) for inhibition of T. brucei phosphofructokinase (PFK IC50), ADP-Glo, mean ± SD) it was 0.83 µM; in experiment [2] (IC50 (µM), single dated measurement, source data), 0.83 µM.

As to `O=c1[nH]ccc2c1ccn2Cc1ccc(Cl)c(Cl)c1` [CTCB-360], the 50% effective concentration (EC50) in experiment [1] (setting [4]) was found to be 1.1 ± 0.1 µM. The IC50 in experiment [2] (setting [6]) was 0.07 µM; in experiment [2] (setting [7]), 0.041 µM and 0.049 µM and 0.091 µM and 0.059 µM and 0.112 µM.

On to `O=c1c2ccn(Cc3ccc(Cl)c(Cl)c3)c2ccn1CCO` [CTCB-401], for which the concentration giving a half-maximal response (EC50) in experiment [1] (setting [4]) was determined as 0.91 ± 0.04 µM; in experiment [1] (read-out: EC50 against the parasite), 0.9 µM. In addition, the IC50 in experiment [2] (read-out: IC50 TbPFK) was found to be 0.073 µM.

On to `NCCn1ccc2c(ccn2Cc2ccc(Cl)c(Cl)c2)c1=O` [CTCB-421], for which the concentration giving a half-maximal response (EC50) in experiment [1] (setting [4]) worked out at 0.54 ± 0.09 µM. The half-inhibitory concentration (IC50) in experiment [2] (read-out: IC50 TbPFK) is 0.03 µM; in experiment [2] (setting [6]), 0.0335 µM.

For the compound `CC(CN)n1ccc2c(ccn2Cc2ccc(Cl)c(Cl)c2)c1=O` (stereo not drawn) [CTCB-457], in experiment [1] (setting [4]), the EC50 was found to be 0.27 ± 0.01 µM. For the same compound, the IC50 is 0.11 µM in experiment [2] (setting [6]); 0.092 µM and 0.122 µM in experiment [2] (setting [7]).

For `CNC[C@@H](C)n1ccc2c(ccn2Cc2ccc(Cl)c(Cl)c2)c1=O` [CTCB-481], the EC50 in experiment [1] (setting [4]) was 0.15 ± 0.05 µM. The IC50 is 0.12 µM in experiment [2] (setting [6]) and 0.122 µM in experiment [2] (setting [7]).

Take `Nc1nc(N)nc(Nc2ccc([As]3SCC(CO)S3)cc2)n1` (stereo not drawn) [Melarsoprol, melarsoprol, reference compound]: the “Whole body bioluminescence - Total Flux” value was 9.807E+10 p/s and 6.826E+10 p/s and 5.548E+10 p/s in experiment [3] (D21 pre-treatment, single mice); 1.530E+07 p/s and 2.111E+07 p/s and 2.252E+07 p/s in experiment [3] (D23 post-treatment, single mice). Further, the “Side head bioluminescence - Total Flux” value in experiment [3] (D23, individual mice, Supp_Fig13) is 2.996E+07 p/s and 8.365E+06 p/s and 9.321E+06 p/s. In addition, the “Ex vivo brain bioluminescence - Total Flux” value in experiment [3] (D23, single mice) is 2.000E+06 p/s and 2.248E+06 p/s and 1.646E+06 p/s.
